Results reported in ChEMBL document CHEMBL1201862, “PubChem BioAssay data set” (2004).
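Compound exposure: 48 hours, 5 concentrations, 96-well plates. Abbreviation: GI50, concentration required for 50% inhibition of growth.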 Calls of active or inactive are those of the source. Rule as the data show it: active = GI50 up to about 1.1 µM and inactive = higher.

Tests used:
Experiment in all cases: inhibition of tumour cell growth, NCI panel, 48 h
UACC-257 = tested on: UACC-257
DMS-114 = tested on: DMS-114
HT-29 = tested on: HT-29
TK-10 = tested on: TK-10
SK-MEL-2 = tested on: SK-MEL-2
SK-OV-3 = tested on: SK-OV-3
NCI-H522 = tested on: NCI-H522
KM-20L2 = tested on: KM-20L2
A549 = tested on: A549
PC-3 = tested on: PC-3
XF498 = tested on: XF498
RXF 393 = tested on: RXF 393
Hs-578T = tested on: Hs-578T
Malme-3M = tested on: Malme-3M
UACC-62 = tested on: UACC-62
SN12C = tested on: SN12C
DLD-1 = tested on: DLD-1
CCRF-CEM = tested on: CCRF-CEM
HCC 2998 = tested on: HCC 2998
NCI-H23 = tested on: NCI-H23
MDA-MB-231 = tested on: MDA-MB-231
SF-539 = tested on: SF-539
HCT-15 = tested on: HCT-15
IGROV-1 = tested on: IGROV-1
RPMI-8226 = tested on: RPMI-8226
EKVX = tested on: EKVX
LXFL 529 = tested on: LXFL 529
NCI/ADR-RES = tested on: NCI/ADR-RES
COLO 205 = tested on: COLO 205
HOP-92 = tested on: HOP-92
786-0 = tested on: 786-0
U-251 = tested on: U-251
SNB-19 = tested on: SNB-19
A498 = tested on: A498
CAKI-1 = tested on: CAKI-1
M19-MEL = tested on: M19-MEL
MDA-MB-435 = tested on: MDA-MB-435
HL-60 = tested on: HL-60
SF-268 = tested on: SF-268
MCF7 = tested on: MCF7
LOX IMVI = tested on: LOX IMVI
ACHN = tested on: ACHN
SK-MEL-28 = tested on: SK-MEL-28
K562 = tested on: K562
T47D = tested on: T47D
DU-145 = tested on: DU-145
SW-620 = tested on: SW-620
NCI-H460 = tested on: NCI-H460
KM12 = tested on: KM12
MDA-N = tested on: MDA-N
HOP-62 = tested on: HOP-62
OVCAR-5 = tested on: OVCAR-5
SK-MEL-5 = tested on: SK-MEL-5
OVCAR-4 = tested on: OVCAR-4
SR = tested on: SR
OVCAR-8 = tested on: OVCAR-8
M14 = tested on: M14
NCI-H226 = tested on: NCI-H226
HCT-116 = tested on: HCT-116
OVCAR-3 = tested on: OVCAR-3
UO-31 = tested on: UO-31
SF-295 = tested on: SF-295
SNB-75 = tested on: SNB-75
SNB-78 = tested on: SNB-78
DMS-273 = tested on: DMS-273
MOLT-4 = tested on: MOLT-4

COc1cc(/C=C2/C(=O)N(C(=O)c3ccccc3O)N=C2C)ccc1O
GI50 (UACC-257): 0.838 µM (active)
GI50 (DMS-114): 0.171 µM (active)
GI50 (HT-29): 9.55 µM (inactive)
GI50 (TK-10): 5.4 µM (inactive)
GI50 (SK-MEL-2): 1.01 µM (active)
GI50 (SK-OV-3): 0.223 µM (active)
GI50 (NCI-H522): 0.593 µM (active)
GI50 (KM-20L2): 18.5 µM (inactive)
GI50 (A549): 0.358 µM (active)
GI50 (PC-3): 0.802 µM (active)
GI50 (XF498): 0.0723 µM (active)
GI50 (RXF 393): 0.0628 µM (active)
GI50 (Hs-578T): 0.272 µM (active)
GI50 (Malme-3M): 0.43 µM (active)
GI50 (UACC-62): 0.0518 µM (active)
GI50 (SN12C): 0.719 µM (active)
GI50 (DLD-1): 0.0603 µM (active)
GI50 (CCRF-CEM): 0.201 µM (active)
GI50 (HCC 2998): 4.65 µM (inactive)
GI50 (NCI-H23): 0.277 µM (active)
GI50 (MDA-MB-231): > 100 µM (inactive)
GI50 (SF-539): 0.14 µM (active)
GI50 (HCT-15): 0.406 µM
GI50 (IGROV-1): 0.123 µM (active)
GI50 (RPMI-8226): 1.06 µM (active)
GI50 (EKVX): 0.586 µM (active)
GI50 (LXFL 529): 0.0515 µM (active)
GI50 (NCI/ADR-RES): 0.596 µM (active)
GI50 (COLO 205): 18.9 µM (inactive)
GI50 (HOP-92): 0.143 µM (active)
GI50 (786-0): 0.421 µM (active)
GI50 (U-251): 0.144 µM (active)
GI50 (SNB-19): 0.123 µM (active)
GI50 (A498): 0.0771 µM (active)
GI50 (CAKI-1): 0.217 µM (active)
GI50 (M19-MEL): 0.653 µM (active)
GI50 (MDA-MB-435): 0.409 µM (active)
GI50 (HL-60): 0.536 µM (active)
GI50 (SF-268): 0.23 µM (active)
GI50 (MCF7): 0.514 µM (active)
GI50 (LOX IMVI): 0.465 µM (active)
GI50 (ACHN): 0.123 µM (active)
GI50 (SK-MEL-28): 34.4 µM (inactive)
GI50 (K562): 0.104 µM (active)
GI50 (T47D): 0.404 µM (active)
GI50 (DU-145): 0.658 µM (active)
GI50 (SW-620): 1.36 µM (inactive)
GI50 (NCI-H460): 0.161 µM (active)
GI50 (KM12): 0.202 µM (active)
GI50 (MDA-N): 0.385 µM (active)
GI50 (HOP-62): 1.77 µM (inactive)
GI50 (OVCAR-5): 6.46 µM (inactive)
GI50 (SK-MEL-5): 0.274 µM (active)
GI50 (OVCAR-4): 1.28 µM (inactive)
GI50 (SR): 0.206 µM (active)
GI50 (OVCAR-8): 0.352 µM (active)
GI50 (M14): 0.698 µM (active)
GI50 (NCI-H226): 0.701 µM (active)
GI50 (HCT-116): 0.0957 µM (active)
GI50 (OVCAR-3): 0.4 µM (active)
GI50 (UO-31): 0.17 µM (active)
GI50 (SF-295): 0.214 µM (active)

CCO/N=C(/N)c1ncn(Cc2ccccc2)c1NCC(OCC)OCC
GI50 (UACC-257): > 100 µM (inactive)
GI50 (DMS-114): > 100 µM (inactive)
GI50 (HT-29): > 100 µM (inactive)
GI50 (TK-10): > 100 µM (inactive)
GI50 (SK-MEL-2): > 100 µM (inactive)
GI50 (SK-OV-3): > 100 µM (inactive)
GI50 (NCI-H522): > 100 µM (inactive)
GI50 (KM-20L2): > 100 µM (inactive)
GI50 (A549): > 100 µM (inactive)
GI50 (XF498): 29.7 µM (inactive)
GI50 (SNB-75): > 100 µM (inactive)
GI50 (RXF 393): 29.2 µM (inactive)
GI50 (Malme-3M): > 100 µM (inactive)
GI50 (UACC-62): > 100 µM (inactive)
GI50 (SN12C): > 100 µM (inactive)
GI50 (DLD-1): > 100 µM (inactive)
GI50 (CCRF-CEM): > 100 µM (inactive)
GI50 (HCC 2998): > 100 µM (inactive)
GI50 (SF-539): > 100 µM (inactive)
GI50 (HCT-15): > 100 µM
GI50 (IGROV-1): > 100 µM (inactive)
GI50 (RPMI-8226): > 100 µM (inactive)
GI50 (EKVX): > 100 µM (inactive)
GI50 (LXFL 529): > 100 µM (inactive)
GI50 (COLO 205): > 100 µM (inactive)
GI50 (SNB-78): > 100 µM (inactive)
GI50 (DMS-273): > 100 µM (inactive)
GI50 (786-0): > 100 µM (inactive)
GI50 (U-251): > 100 µM (inactive)
GI50 (SNB-19): > 100 µM (inactive)
GI50 (A498): > 100 µM (inactive)
GI50 (CAKI-1): > 100 µM (inactive)
GI50 (M19-MEL): > 100 µM (inactive)
GI50 (SF-268): > 100 µM (inactive)
GI50 (LOX IMVI): > 100 µM (inactive)
GI50 (ACHN): > 100 µM (inactive)
GI50 (K562): > 100 µM (inactive)
GI50 (SW-620): > 100 µM (inactive)
GI50 (NCI-H460): > 100 µM (inactive)
GI50 (KM12): > 100 µM (inactive)
GI50 (HOP-62): > 100 µM (inactive)
GI50 (OVCAR-5): > 100 µM (inactive)
GI50 (SK-MEL-5): > 100 µM (inactive)
GI50 (OVCAR-8): > 100 µM (inactive)
GI50 (M14): > 100 µM (inactive)
GI50 (NCI-H226): > 100 µM (inactive)
GI50 (HCT-116): > 100 µM (inactive)
GI50 (OVCAR-3): > 100 µM (inactive)
GI50 (UO-31): > 100 µM (inactive)
GI50 (SF-295): > 100 µM (inactive)
GI50 (MOLT-4): > 100 µM (inactive)
